Results as given in patent US8703215B2, “Agents from Ficus hispida for the amelioration of metabolic syndrome and related diseases” (Laila Nutraceuticals, priority 2009, dated 2014).

Assays:
[1] = tested on: human cancer cells; conditions: small panel of human cancer cells; cited from earlier work
[2] = Body weight gain in high fat diet induced obesity model of Sprague-Dawley rats; format: in vivo; conditions: 7 mg/kg oral daily, 8 weeks
From the text: (§1) Induction: Selected healthy Sprague-Dawley rats were randomly assigned to control or various treatment groups (n=7). All the animals allocated to the obesity study were made experimentally obese through dietary intervention during the entire eight weeks induction period by feeding high fat diet ad libitum containing Bengal gram 32 g, Wheat floor 15 g, Yeast 1 g, Butter 2 g, Ground nut oil 8 g, Casein 5 g, Vanaspathi 20 g, Vitamin mix 05 g, Milk powder 12 g and Mineral Salt mixture 4.5 g per 100 g of high fat diet.
Treatment: Following 8 weeks of induction phase, the animals were treated orally (using oral feeding gavage) with either of the allocated test substances or vehicle daily for 8 weeks. […]
Body weights: Body weight of individual animal was recorded weekly during the entire duration of the study. Mean body weights for the treatment groups and control group were determined. The body weight gain was calculated at the end of 1st week, 4th week and 8th week after initiation of treatment in comparison to initial body weights. The percentage reduction in weight gain in the treatment groups was then calculated by comparing the weight gain in each treatment with that of control group. […]

[3] = tested on: adiponectin; test: Serum adiponectin in high fat diet induced obese rats (ELISA); format: in vivo, Sprague-Dawley rats; conditions: 7 mg/kg daily, 8 weeks
From the text: as §1
(§2) Treatment: Following 8 weeks of induction phase, the animals were treated orally (using oral feeding gavage) with either of the allocated test substances or vehicle daily for 8 weeks. The animals of treatment groups were supplemented with 100 mg/kg body weight of LI/PD/044B/03 or 250 mg/kg body weight of LI/PD/044B/03 or 7 mg/kg body weight of sibutramine in 10 mL of 0.5% CMC in water for further 8 weeks. The control group of animals received only the vehicle (10 mL of 0.5% CMC in water) during this period. During the treatment phase, all animals were provided with the standard rodent diet till the end of the study.
Estimation of Biomarker Adiponectin: The serum adiponectin concentration for the control and treatment groups of animals were assessed using double antibody based sandwich rat adiponectin ELISA kit. […]

[4] = Serum LDL in high fat diet induced obese rats; format: in vivo, Sprague-Dawley rats; conditions: 7 mg/kg, 8 weeks
From the text: as §1, §2
Serum LDL concentration: The serum LDL levels in animals supplemented with different Treatments and control were estimated on Human Biochemistry Analyzer (German) and the results are summarized in FIG. 7B.

| Compound | cytotoxic activity [1] | reduction in body weight gain vs control group [2] [%] | improvement in serum adiponectin concentration vs baseline [3] [%] | serum LDL concentrations [4] |
| --- | --- | --- | --- | --- |
| COc1ccc2c3c(c4cc(OC)c(OC)cc4c2c1)CN1CCCC1C3O (centres unmarked) [O-Methyltylophorinidine] | potent cytotoxic activity |  |  |  |
| CC(C)CC(N(C)C)C1(c2ccc(Cl)cc2)CCC1 (centres unmarked) [sibutramine] |  | 40 | 6.3 | significant reduction |
| ficustriol | inactive |  |  |  |
